Values quoted from earlier work as cited in patent CN101647784A, “卡马西平缓释片及其制备方法” (Beijing Kexin Bicheng Medicine Technology Development Co Ltd, priority 2008, dated 2010).

Settings: early epilepsy and single seizures; 406 subjects, immediate versus deferred treatment

NC(=O)N1c2ccccc2C=Cc2ccccc21 [卡马西平]
显著影响: effect on time to 1-year remission | effect on time to 2-year remission | effect on time to first seizure
